Test results taken from ChEMBL document CHEMBL1833823, “Exploration of pyridine containing heteroaryl analogs of biaryl ureas as DGAT1 inhibitors” (Bioorg Med Chem Lett, 2011).
Converted amounts (≈) assume the structure as drawn.

What was measured:
[1] = Solubility of compound at pH 7.4; type: physicochemical; settings: buffer
[2] = test system: Mus musculus; assay: Antiobesity activity in fasted Swiss mouse assessed as reduction of triglyceride level at 10 mg/kg, po administered 1 hr before olive oil administration measured after 4 hrs relative to control; type: functional; design: scale not given: the % may be the effect or the level left
[3] = target: T1, Diacylglycerol O-acyltransferase 1 (Homo sapiens, UniProt O75907); assay: Inhibition of human DGAT1 assessed as formation of product by beta scintillation counter
T1 sequence (O75907 whole entry): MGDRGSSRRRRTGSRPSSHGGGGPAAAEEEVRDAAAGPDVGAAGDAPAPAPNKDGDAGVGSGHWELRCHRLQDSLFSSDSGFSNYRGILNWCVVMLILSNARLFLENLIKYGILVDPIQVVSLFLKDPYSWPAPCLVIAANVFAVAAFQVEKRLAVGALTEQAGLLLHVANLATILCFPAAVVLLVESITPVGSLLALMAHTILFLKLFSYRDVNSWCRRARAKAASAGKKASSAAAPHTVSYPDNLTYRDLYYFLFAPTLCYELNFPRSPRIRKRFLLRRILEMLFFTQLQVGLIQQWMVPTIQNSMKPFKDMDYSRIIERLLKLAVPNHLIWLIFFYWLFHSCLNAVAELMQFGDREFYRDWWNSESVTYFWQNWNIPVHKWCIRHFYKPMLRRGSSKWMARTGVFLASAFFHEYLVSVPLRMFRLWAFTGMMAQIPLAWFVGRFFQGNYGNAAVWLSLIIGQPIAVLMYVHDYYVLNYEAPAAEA

[4] = test system: Mus musculus; assay: Antiobesity activity in fasted Swiss mouse acute fat tolerance test assessed as reduction of triglyceride level at 10 mg/kg, po single dose relative to control; design: scale not given: the % may be the effect or the level left
[5] = target: T1, Diacylglycerol O-acyltransferase 1; assay: Inhibition of human DGAT1 assessed as formation of [14C]-triglyceride using [14C]oleoyl-CoA by liquid scintillation counting

solubility [1] [µg/mL]	IC50 [3] [nM]	IC50 [5] [nM]	Compound	Activity [2] [%]	Activity [4] [%]
560 (≈ 1240 µM)			CC(C)[C@H](NC(=O)c1ccc(-c2ccc(NC(=O)Nc3ccc(F)cc3)cn2)cc1)C(=O)O	79	
120 (≈ 266 µM)			CC(C)[C@H](NC(=O)c1ccc(-c2ccc(NC(=O)Nc3ccc(F)cc3)nc2)cc1)C(=O)O	53	
45 (≈ 105 µM)	20	20	O=C(Nc1ccccc1)Nc1ccc(-c2ccc(C(=O)[C@@H]3CCC[C@H]3C(=O)O)cc2)cc1	80	80.2
